{"source": "patent US20100273186A1", "about": "“SPLIT MUTANT HYDROLASE FUSION REPORTER AND USES THEREOF” (Promega Corporation, priority 2007, published 2010)", "origin": "cited, not measured here", "system": "Photinus pyralis luciferase", "data": [{"substance": "RRFS: Photinus pyralis luciferase mutant, V217R generating site RRFS (SEQ ID NO:11), Sala-Newby et al.", "values": [{"measurement": "decrease of activity when phosphorylated", "setting": "Sala-Newby et al.", "value": "up to 80%"}]}, {"substance": "LRRASLG", "values": [{"measurement": "reduction of activity on addition of cyclic AMP dependent protein kinase catalytic subunit", "setting": "Waud et al.", "value": 30, "unit": "%"}]}]}
